According to US20230265116A1, “DEGRADATION OF (EGFR) BY CONJUGATION OF EGFR INHIBITORS WITH E3 LIGASE LIGAND AND METHODS OF USE” (BEIGENE, LTD., priority 2020, published 2023):
Where two headings read alike, the source gives them in different places.

Key:
[1] = biological target: T1, EGFR L858R/T790M/C797S (BaF3-LTC cells) (Homo sapiens, UniProt P00533, C797S/L858R/T790M); test: EGFR degradation HTRF assay, BaF3-LTC cells; format: cell-based
T1 construct: expressed in transfected cells; host or cells: BaF3
T1 sequence (P00533 25-1210 T790M/C797S/L858R): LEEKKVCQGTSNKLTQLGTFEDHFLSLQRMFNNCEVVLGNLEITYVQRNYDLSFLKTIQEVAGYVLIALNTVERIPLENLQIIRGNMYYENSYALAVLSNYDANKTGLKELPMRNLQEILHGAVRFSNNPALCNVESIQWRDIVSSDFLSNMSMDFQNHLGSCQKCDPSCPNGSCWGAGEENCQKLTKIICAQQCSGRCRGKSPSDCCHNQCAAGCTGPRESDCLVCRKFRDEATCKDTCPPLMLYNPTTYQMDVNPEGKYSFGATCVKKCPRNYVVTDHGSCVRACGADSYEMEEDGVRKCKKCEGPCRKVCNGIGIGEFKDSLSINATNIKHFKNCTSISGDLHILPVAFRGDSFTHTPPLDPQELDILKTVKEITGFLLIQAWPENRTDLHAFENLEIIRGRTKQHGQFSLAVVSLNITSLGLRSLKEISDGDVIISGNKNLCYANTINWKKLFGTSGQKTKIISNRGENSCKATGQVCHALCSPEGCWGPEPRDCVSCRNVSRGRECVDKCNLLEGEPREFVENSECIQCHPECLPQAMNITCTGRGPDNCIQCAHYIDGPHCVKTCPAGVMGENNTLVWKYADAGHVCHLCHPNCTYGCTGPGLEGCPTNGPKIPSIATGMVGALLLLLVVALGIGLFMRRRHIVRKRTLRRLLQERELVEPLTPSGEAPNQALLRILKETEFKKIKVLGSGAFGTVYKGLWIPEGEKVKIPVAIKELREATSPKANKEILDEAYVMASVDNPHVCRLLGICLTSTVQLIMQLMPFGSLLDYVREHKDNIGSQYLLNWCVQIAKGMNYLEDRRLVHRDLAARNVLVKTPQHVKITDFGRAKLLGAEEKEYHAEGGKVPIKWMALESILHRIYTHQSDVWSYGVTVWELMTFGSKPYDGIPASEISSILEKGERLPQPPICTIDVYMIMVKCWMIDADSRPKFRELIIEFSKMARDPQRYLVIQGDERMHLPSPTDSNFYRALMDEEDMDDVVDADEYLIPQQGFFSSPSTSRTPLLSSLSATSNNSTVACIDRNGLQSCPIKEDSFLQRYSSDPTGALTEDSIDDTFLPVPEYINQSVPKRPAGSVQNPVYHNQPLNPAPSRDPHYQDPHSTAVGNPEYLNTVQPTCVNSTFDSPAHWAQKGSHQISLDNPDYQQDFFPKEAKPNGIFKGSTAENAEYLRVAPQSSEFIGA
Outline: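 EGFR remaining after a 16 h, 37 °C exposure (8 doses, 5-fold steps from 10 uM final, 0.2% DMSO) was quantified by HTRF antibodies in cell lysate. Percent inhibition relative to DMSO control was fitted by four-parameter logistic to give DC50; Dmax denotes maximal degradation.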

[2] = system: EGFR Del19/T790M/C797S (H1975-clone #28); test: EGFR degradation HTRF assay, H1975-clone #28 DTC cells; format: cell-based
Outline: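 H1975 clones stably overexpressing mutant EGFR, with endogenous EGFR knocked out by sgRNA and homozygosity confirmed by sequencing, were treated 16h at 37° C. with compounds in 0.2% DMSO (top final 10 uM, 5-fold, 8 doses). Lysates were read by HTRF (665/620 nm); DC50 and Dmax came from fitting % degradation versus DMSO control.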

[3] = BaF3-LTC cells; EGFR degradation, IC50 (DC50) from curve fit; read-out: DC50(nM) BaF3-LTC
[4] = BaF3-LTC cells; maximum percentage of inhibition (degradation); read-out: Dmax (%) BaF3-LTC
[5] = H1975 # 28 DTC cells; EGFR degradation, IC50 (DC50) from curve fit; read-out: DC50(nM) H1975 # 28 DTC
[6] = H1975 # 28 DTC cells; maximum percentage of inhibition (degradation)

Compound	DC50 [1, 3] [nM]	Dmax [1, 4] [%]	DC50 [2, 5] [nM]	Dmax (%) BaF3-LTC ([1]; BaF3-LTC cells; maximum percentage of inhibition (degradation)) [%]	Dmax (%) H1975 # 28 DTC [2, 6] [%]	DC50 ([1]; read-out: DC50(nM) BaF3-LTC; BaF3-LTC cells; EGFR degradation, IC50 (DC50) from curve fit) [nM]	Dmax ([1]; read-out: Dmax (%) BaF3-LTC, BaF3-LTC cells; maximum percentage of inhibition (degradation)) [%]	DC50 ([2]; read-out: DC50(nM) H1975 # 28 DTC; H1975 # 28 DTC cells; EGFR degradation, IC50 (DC50) from curve fit) [nM]
CCOc1cc(N2CCC(N3CCN(CCc4c(F)ccc5c4n(CC)c(=O)n5C4CCC(=O)NC4=O)CC3)CC2)c(CC)cc1Nc1ncc(Br)c(Nc2ccc3c(=O)n(CC)ncc3c2P(C)(C)=O)n1 (stereo not shown) [Example 596, 3-(4-(2-(4-(1-(4-((5-bromo-4-((5-(dimethylphosphoryl)-2-ethyl-1-oxo-1,2-dihydrophthalazin-6-yl)amino)pyrimidin-2-yl)amino)-5-ethoxy-2-ethylphenyl)piperidin-4-yl)piperazin-1-yl)ethyl)-3-ethyl-5-fluoro-2-oxo-2,3-dihydro-1H-benzo[d]imidazol-1-yl)piperidine-2,6-dione]	6.56		0.937	91.42	84.17			
CCOc1cc(N2CCC(N3CCN(CCN(C)c4cccc5c4oc(=O)n5C4CCC(=O)NC4=O)CC3)CC2)c(CC)cc1Nc1ncc(Br)c(Nc2cc(F)c3nc(CC)ccc3c2P(C)(C)=O)n1 (stereo not shown) [Example 604, 3-(7-((2-(4-(1-(4-((5-bromo-4-((5-(dimethylphosphoryl)-2-ethyl-8-fluoroquinolin-6-yl)amino)pyrimidin-2-yl)amino)-5-ethoxy-2-ethylphenyl)piperidin-4-yl)piperazin-1-yl)ethyl)(methyl)amino)-2-oxobenzo[d]oxazol-3(2H)-yl)piperidine-2,6-dione]	18.5	86.1	0.764		69.1			
CCOc1cc(N2CCC(N3CCN(C(=O)[C@@H]4CCN(c5cccc6c5oc(=O)n6C5CCC(=O)NC5=O)C4)CC3)CC2)c(CC)cc1Nc1ncc(Br)c(Nc2ccc3nc(CC)ccc3c2P(C)(C)=O)n1 (stereo partly drawn) [Example 445, 3-(7-((R)-3-(4-(1-(4-((5-bromo-4-((5-(dimethylphosphoryl)-2-ethylquinolin-6-yl)amino)pyrimidin-2-yl)amino)-5-ethoxy-2-ethylphenyl)piperidin-4-yl)piperazine-1-carbonyl)pyrrolidin-1-yl)-2-oxobenzo[d]oxazol-3(2H)-yl)piperidine-2,6-dione]					79.2	5.24	87.7	0.877
CCOc1cc(N2CCC(N3CCN(CCc4c(F)ccc5c4C(C)(C)C(=O)N5C4CCC(=O)NC4=O)CC3)CC2)c(CC)cc1Nc1ncc(Br)c(Nc2ccc3nc(CC)ccc3c2P(C)(C)=O)n1 (stereo not shown) [Example 647, 3-(4-(2-(4-(1-(4-((5-bromo-4-((5-(dimethylphosphoryl)-2-ethylquinolin-6-yl)amino)pyrimidin-2-yl)amino)-5-ethoxy-2-ethylphenyl)piperidin-4-yl)piperazin-1-yl)ethyl)-5-fluoro-3,3-dimethyl-2-oxoindolin-1-yl)piperidine-2,6-dione]	13.2	93.2	2		66.66			
CCc1cc(Nc2ncc(Br)c(Nc3ccc4nc(C)ccc4c3P(C)(C)=O)n2)c(OC2CC2)cc1N1CCC(N2CCN(CCc3ccc4c(c3)oc(=O)n4C3CCC(=O)NC3=O)CC2)CC1 (stereo not shown) [Example 557, 3-(6-(2-(4-(1-(4-((5-bromo-4-((5-(dimethylphosphoryl)-2-methylquinolin-6-yl)amino)pyrimidin-2-yl)amino)-5-cyclopropoxy-2-ethylphenyl)piperidin-4-yl)piperazin-1-yl)ethyl)-2-oxobenzo[d]oxazol-3(2H)-yl)piperidine-2,6-dione]	6.8	89.1	0.773		92.3			
CCc1ccc2c(P(C)(C)=O)c(Nc3nc(Nc4cc(CC)c(N5CCC(N6CCC(CCc7cc(F)c(C8CCC(=O)NC8=O)c(F)c7)CC6)CC5)cc4OC)ncc3Br)ccc2n1 (stereo not shown) [Example 583, 3-(4-(2-(1′-(4-((5-bromo-4-((5-(dimethylphosphoryl)-2-ethylquinolin-6-yl)amino)pyrimidin-2-yl)amino)-2-ethyl-5-methoxyphenyl)-[1,4′-bipiperidin]-4-yl)ethyl)-2,6-difluorophenyl)piperidine-2,6-dione]	17	92.9	2.7		76.91			

More lines, in order of falling DC50 [1, 3], values ahead:

DC50 [1, 3] [nM]	Dmax [1, 4] [%]	DC50 [2, 5] [nM]	Dmax (%) BaF3-LTC ([1]; BaF3-LTC cells; maximum percentage of inhibition (degradation)) [%]	Compound	Dmax (%) H1975 # 28 DTC [2, 6] [%]	DC50 ([1]; read-out: DC50(nM) BaF3-LTC; BaF3-LTC cells; EGFR degradation, IC50 (DC50) from curve fit) [nM]	Dmax ([1]; read-out: Dmax (%) BaF3-LTC, BaF3-LTC cells; maximum percentage of inhibition (degradation)) [%]	DC50 ([2]; read-out: DC50(nM) H1975 # 28 DTC; H1975 # 28 DTC cells; EGFR degradation, IC50 (DC50) from curve fit) [nM]
6.28	79.4	1.19		CCc1ccc2c(P(C)(C)=O)c(Nc3nc(Nc4cc(CC)c(N5CCC(N6CCN(CCc7c(F)ccc8c7oc(=O)n8C7CCC(=O)NC7=O)CC6)CC5)cc4OC)ncc3Br)ccc2n1 (stereo not shown) [Example 444, 3-(7-(2-(4-(1-(4-((5-bromo-4-((5-(dimethylphosphoryl)-2-ethylquinolin-6-yl)amino)pyrimidin-2-yl)amino)-2-ethyl-5-methoxyphenyl)piperidin-4-yl)piperazin-1-yl)ethyl)-6-fluoro-2-oxobenzo[d]oxazol-3(2H)-yl)piperidine-2,6-dione]	79.58			
5.7	93.1	0.704		CCc1ccc2c(P(C)(C)=O)c(Nc3nc(Nc4cc(CC)c(N5CCC(N6CCN(CCc7cccc8c7n(CC)c(=O)n8C7CCC(=O)NC7=O)CC6)CC5)cc4OC)ncc3Br)ccc2n1 (stereo not shown) [Example 453, 3-(4-(2-(4-(1-(4-((5-bromo-4-((5-(dimethylphosphoryl)-2-ethylquinolin-6-yl)amino)pyrimidin-2-yl)amino)-2-ethyl-5-methoxyphenyl)piperidin-4-yl)piperazin-1-yl)ethyl)-3-ethyl-2-oxo-2,3-dihydro-TH-benzo[d]imidazol-1-yl)piperidine-2,6-dione]	77.04			
5.05	94.6	1.87		CCOc1cc(N2CCC(N3CCN(C(=O)[C@@H]4CCN(c5cc(F)c([C@H]6CCC(=O)NC6=O)c(F)c5)C4)CC3)CC2)c(CC)cc1Nc1ncc(Br)c(Nc2ccc3c(=O)n(C)ncc3c2P(C)(C)=O)n1 [Example 530, (R)-3-(4-((R)-3-(4-(1-(4-((5-bromo-4-((5-(dimethylphosphoryl)-2-methyl-1-oxo-1,2-dihydrophthalazin-6-yl)amino)pyrimidin-2-yl)amino)-5-ethoxy-2-ethylphenyl)piperidin-4-yl)piperazine-1-carbonyl)pyrrolidin-1-yl)-2,6-difluorophenyl)piperidine-2,6-dione]	82.54			
4.47	88	0.985		CCOc1cc(N2CCC(N3CCN(CCc4c(C)ccc5c4oc(=O)n5C4CCC(=O)NC4=O)CC3)CC2)c(CC)cc1Nc1ncc(Br)c(Nc2ccc3nc(CC)ccc3c2P(C)(C)=O)n1 (stereo not shown) [Example 634, 3-(7-(2-(4-(1-(4-((5-bromo-4-((5-(dimethylphosphoryl)-2-ethylquinolin-6-yl)amino)pyrimidin-2-yl)amino)-5-ethoxy-2-ethylphenyl)piperidin-4-yl)piperazin-1-yl)ethyl)-6-methyl-2-oxobenzo[d]oxazol-3(2H)-yl)piperidine-2,6-dione]	81.71			
2.32	91.5	0.579		CCc1cc(Nc2ncc(Br)c(Nc3ccc4ncncc4c3P(C)(C)=O)n2)c(OC)cc1N1CCC(N2CCN(C(=O)[C@@H]3CCN(c4cc(F)c([C@H]5CCC(=O)NC5=O)c(F)c4)C3)CC2)CC1 [Example 668, (R)-3-(4-((R)-3-(4-(1-(4-((5-bromo-4-((5-(dimethylphosphoryl)quinazolin-6-yl)amino)pyrimidin-2-yl)amino)-2-ethyl-5-methoxyphenyl)piperidin-4-yl)piperazine-1-carbonyl)pyrrolidin-1-yl)-2,6-difluorophenyl)piperidine-2,6-dione]	86.5			
1.77	93.4	0.583		COc1cc(N2CCC(N3CCN(C(=O)[C@@H]4CCN(c5cc(F)c([C@H]6CCC(=O)NC6=O)c(F)c5)C4)CC3)CC2)c(C)cc1Nc1ncc(Br)c(Nc2ccc3c(=O)n(C)ncc3c2P(C)(C)=O)n1 [Example 527, (R)-3-(4-((R)-3-(4-(1-(4-((5-bromo-4-((5-(dimethylphosphoryl)-2-methyl-1-oxo-1,2-dihydrophthalazin-6-yl)amino)pyrimidin-2-yl)amino)-5-methoxy-2-methylphenyl)piperidin-4-yl)piperazine-1-carbonyl)pyrrolidin-1-yl)-2,6-difluorophenyl)piperidine-2,6-dione]	85.27			
1.43	95.3	0.611		CCc1cc(Nc2ncc(Br)c(Nc3ccc4c(=O)n(C5CC5)ncc4c3P(C)(C)=O)n2)c(OC)cc1N1CCC(N2CCN(CCc3ccc4c(c3)oc(=O)n4C3CCC(=O)NC3=O)CC2)CC1 (stereo not shown) [Example 522, 3-(6-(2-(4-(1-(4-((5-bromo-4-((2-cyclopropyl-5-(dimethylphosphoryl)-1-oxo-1,2-dihydrophthalazin-6-yl)amino)pyrimidin-2-yl)amino)-2-ethyl-5-methoxyphenyl)piperidin-4-yl)piperazin-1-yl)ethyl)-2-oxobenzo[d]oxazol-3(2H)-yl)piperidine-2,6-dione]	75.25			
